Measurements: US5624923A, “Tricyclic diazepine vasopressin antagonists and oxytocin antagonists” (priority 1995, dated 1997)
One block for each compound: values may come before it.

Legend:
[1] = molecular target: T1, V1 Receptor Subtype in Human Platelet (Homo sapiens, UniProt P37288); test: Binding to Vasopressin V1 receptor subtype in Human Platelet Membranes; details: human platelet membranes;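 further: reported value is IC50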
T1 construct: tissue Hudson Valley Blood Services, Westchester Medical Center, Valhalla, N.Y; host or cells: human platelets (frozen platelet rich plasma)

[2] = tested on: Vasopressin V1; test: Vasopressin V1 Antagonist Activity in Conscious Rats (vasopressin vasopressor response); type: in vivo, rat; parameters: Average Change: unit not given here; details: for % Inhibition / Average Change: SHR
Outline: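 Conscious rats are restrained supine, and under local 2% procaine a PE 10/20 cannula is passed through the ventral caudal tail artery into the lower abdominal aorta. The caudal vein is cannulated for intravenous dosing. Blood pressure is recorded with a Statham P23Db transducer, and vasopressin injections are repeated after compound dosing. Percent antagonism is calculated against the pre-drug vasopressor response taken as 100%.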

[3] = molecular target: T2, Rat Kidney Medullary V2 Receptors (Rattus norvegicus, UniProt Q00788); test: Binding Assay to Rat Kidney Medullary V2 Receptors; details: rat kidney medulla membranes; read-out: V2 IC50
T2 construct: Medullary tissues from rat kidneys are dissected out; from tissue; host or cells: rat kidney medulla membranes
Outline: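 Membranes were prepared from rat kidney medulla and stored in 50.0 mM Tris-HCl pH 7.4 with 0.2% BSA and 0.1 mM PMSF. Radioligand competition ran 120 min at bench temperature, with 1.0 μM unlabeled ligand defining nonspecific binding. Compounds were added in 50% DMSO; filtration, tritium scintillation counting, IC50 from competition analysis.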

[4] = 10 mg/kg i.v., VAS 0.01 i.u./kg, 30 min
[5] = 10 mg/kg i.v., VAS 0.01 i.u./kg, 60 min
[6] = 10 mg/kg i.v., VAS 0.01 i.u./kg, 90 min
[7] = 10 mg/kg i.v., VAS 0.01 i.u./kg, 120 min
[8] = 10 mg/kg i.v., VAS 0.01 i.u./kg, 180 min
[9] = 10 mg/kg i.v., VAS 0.01 i.u./kg, 240 min
[10] = 10 mg/kg i.v., VAS 0.01 i.u./kg, 300 min
[11] = 10 mg/kg i.v., VAS 0.02 i.u./kg, 30 min
[12] = 10 mg/kg i.v., VAS 0.02 i.u./kg, 60 min
[13] = 10 mg/kg i.v., VAS 0.02 i.u./kg, 90 min
[14] = 10 mg/kg i.v., VAS 0.02 i.u./kg, 120 min
[15] = 10 mg/kg i.v., VAS 0.02 i.u./kg, 180 min
[16] = 10 mg/kg i.v., VAS 0.02 i.u./kg, 240 min
[17] = 10 mg/kg i.v., VAS 0.02 i.u./kg, 300 min

T2 sequence (Q00788 whole entry): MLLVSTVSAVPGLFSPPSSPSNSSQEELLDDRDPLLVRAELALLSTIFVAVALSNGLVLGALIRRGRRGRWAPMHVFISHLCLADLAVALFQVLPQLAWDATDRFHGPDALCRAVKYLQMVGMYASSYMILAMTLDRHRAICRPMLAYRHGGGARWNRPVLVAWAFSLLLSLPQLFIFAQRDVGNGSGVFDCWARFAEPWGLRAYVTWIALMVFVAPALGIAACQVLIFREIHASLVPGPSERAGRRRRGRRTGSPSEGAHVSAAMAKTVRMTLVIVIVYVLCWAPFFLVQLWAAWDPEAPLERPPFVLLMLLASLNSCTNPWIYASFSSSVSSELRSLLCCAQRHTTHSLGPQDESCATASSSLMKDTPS
T1 sequence (P37288 whole entry): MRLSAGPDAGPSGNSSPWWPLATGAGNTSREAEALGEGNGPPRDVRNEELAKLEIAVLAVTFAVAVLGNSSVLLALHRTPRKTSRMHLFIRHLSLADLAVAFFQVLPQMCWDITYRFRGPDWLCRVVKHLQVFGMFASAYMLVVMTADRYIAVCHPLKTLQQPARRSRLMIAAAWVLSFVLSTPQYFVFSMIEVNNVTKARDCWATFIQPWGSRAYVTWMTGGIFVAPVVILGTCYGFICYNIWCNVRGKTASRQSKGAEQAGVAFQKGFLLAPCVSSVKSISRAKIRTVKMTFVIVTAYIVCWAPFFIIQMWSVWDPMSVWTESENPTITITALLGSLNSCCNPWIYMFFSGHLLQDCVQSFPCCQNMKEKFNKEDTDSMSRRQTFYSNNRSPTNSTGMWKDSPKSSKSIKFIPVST

IC50 [1]: 23 nM
IC50 [3]: 8 nM
Structure (SMILES): COc1cc(C(=O)N2Cc3cccn3Cc3ccccc32)ccc1NC(=O)c1cccc(F)c1C [Example 479, N-[4-(5H-pyrrolo[2,1-c][1,4]benzodiazepin-10(11H)-ylcarbonyl)-2-methoxy-phenyl]-3-fluoro-2-methylbenzamide]
Max. % Inhibition ([2]; 10 mg/kg i.v.): 83%
Time (of max. % inhibition) ([2]; 10 mg/kg i.v.): 60 min
Max. % Inhibition ([2]; 30 mg/kg p.o.): 69%
Time (of max. % inhibition) ([2]; 30 mg/kg p.o.): 90 min

IC50 [1]: 26 nM
Structure (SMILES): O=C(Nc1ccc(C(=O)N2Cc3cccn3Cc3ccccc32)c(Cl)c1)c1ccc(F)cc1Cl [Example 527, N-[4-(5H-pyrrolo[2,1-c][1,4]benzodiazepin-10(11H)-ylcarbonyl]-3-chlorophenyl]-4-fluoro-2-chlorobenzamide]
Max. % Inhibition ([2]; 30 mg/kg i.v.): 85%
Time (of max. % inhibition) ([2]; 30 mg/kg i.v.): 180 min

IC50 [1]: 190 nM
IC50 [3]: 5 nM
Structure (SMILES): O=C(Nc1ccc(C(=O)N2Cc3ccnn3Cc3ccccc32)cc1)c1ccc(Cl)cc1Cl [Example 217, N-[4-(4H-Pyrazolo[5,1-c][1,4]benzo-diazepin-5(10H)-ylcarbonyl)phenyl]-2,4-dichlorobenzamide]
Max. % Inhibition ([2]; 30 mg/kg i.v.): 57%
Time (of max. % inhibition) ([2]; 30 mg/kg i.v.): 90 min

IC50 [1]: 3 nM
Structure (SMILES): COc1cc(C(=O)N2Cc3cccn3Cc3ccccc32)ccc1NC(=O)c1ccccc1C [Example 477, N-[4-(5H-pyrrolo[2,1-c][1,4]benzodiazepin-10(11H)-ylcarbonyl)-2-methoxy-phenyl]-2-methylbenzamide]
Max. % Inhibition ([2]; 10 mg/kg i.v.): 88%
Time (of max. % inhibition) ([2]; 10 mg/kg i.v.): 180 min
Max. % Inhibition ([2]; 30 mg/kg p.o.): 82%
Time (of max. % inhibition) ([2]; 30 mg/kg p.o.): 30 min

IC50 [1]: 200 nM
Structure (SMILES): O=C(Nc1ccc(C(=O)N2Cc3cccn3Cc3ccccc32)c(Cl)c1)c1ccccc1C(F)(F)F [Example 528, N-[4-(5H-pyrrolo[2,1-c][1,4]benzodiazepin-10(11H)-ylcarbonyl]-3-chlorophenyl]-2-(trifluoromethyl)benzamide]
Max. % Inhibition ([2]; 30 mg/kg i.v.): 66%
Time (of max. % inhibition) ([2]; 30 mg/kg i.v.): 300 min

IC50 [1]: 240 nM
Structure (SMILES): O=C(Nc1ccc(C(=O)N2Cc3cccn3Cc3sccc32)cc1)c1ccc(Cl)cc1Cl [Example 274, N-(4-(5H-pyrrolo[1,2-a]thieno-[3,2-e][1,4]diazepin-4(10H)-ylcarbonyl)phenyl]-2,4-dichloro-benzamide]
Max. % Inhibition ([2]; 10 mg/kg i.v.): 59%
Time (of max. % inhibition) ([2]; 10 mg/kg i.v.): 300 min

IC50 [1]: 540 nM
Structure (SMILES): O=C(Nc1ccc(C(=O)N2Cc3cccn3Cc3ccccc32)cc1)c1cc([N+](=O)[O-])ccc1Cl [Example 480, N-[4-(5H-pyrrolo[2,1-c][1,4]benzodiazepin-10(11H)-ylcarbonyl)phenyl]-2-chloro-5-nitrobenzamide]
Max. % Inhibition ([2]; 10 mg/kg i.v.): 29%
Time (of max. % inhibition) ([2]; 10 mg/kg i.v.): 300 min

IC50 [1]: 3 nM
IC50 [3]: 3.7 nM
Structure (SMILES): Cc1ccccc1C(=O)Nc1ccc(C(=O)N2Cc3cccn3Cc3ccccc32)cc1Cl [Example 530, N-[4-(5H-Pyrrolo[2,1-c][1,4]benzodiazepin-10(11H)-ylcarbonyl)-2-chlorophenyl]-2-methylbenzamide]
Max. % Inhibition ([2]; 30 mg/kg i.v.): 89%
Time (of max. % inhibition) ([2]; 30 mg/kg i.v.): 120 min

IC50 [1]: 430 nM
Structure (SMILES): Cc1cccc(C(=O)Nc2ccc(C(=O)N3Cc4cccn4Cc4ccccc43)c(Cl)c2)c1C [Example 525, N-[4-(5H-pyrrolo[2,1-c][1,4]benzodiazepin-10(11H)-ylcarbonyl]-3-chlorophenyl]-2,3-dimethylbenzamide]
Max. % Inhibition ([2]; 30 mg/kg i.v.): 70%
Time (of max. % inhibition) ([2]; 30 mg/kg i.v.): 60 min

IC50 [1]: 32 nM
Structure (SMILES): COc1cc(C(=O)N2Cc3cccn3Cc3ccccc32)ccc1NC(=O)c1ccc(Cl)cc1Cl [Example 478, N-[4-(5H-pyrrolo[2,1-c][1,4]benzodiazepin-10(11H)-ylcarbonyl)-2-methoxy-phenyl]-2,4-dichlorobenzamide]
Max. % Inhibition ([2]; 10 mg/kg i.v.): 76%
Time (of max. % inhibition) ([2]; 10 mg/kg i.v.): 120 min

IC50 [3]: 5 nM
Structure (SMILES): O=C(Nc1ccc(C(=O)N2Cc3cccn3Cc3ccccc32)cc1)c1ccccc1Cl [Example 7]
% Inhibition [2, 4]: 87%
Average Change [2, 4]: 6
% Inhibition [2, 5]: 87%
Average Change [2, 5]: 6
% Inhibition [2, 6]: 82%
Average Change [2, 6]: 8.5
% Inhibition [2, 7]: 80%
Average Change [2, 7]: 9.5
% Inhibition [2, 8]: 63%
Average Change [2, 8]: 17.5
% Inhibition [2, 9]: 56%
Average Change [2, 9]: 20.5
% Inhibition [2, 10]: 57%
Average Change [2, 10]: 20
% Inhibition [2, 11]: 87%
Average Change [2, 11]: 7.5
% Inhibition [2, 12]: 86%
Average Change [2, 12]: 8
% Inhibition [2, 13]: 78%
Average Change [2, 13]: 12.5
% Inhibition [2, 14]: 77%
Average Change [2, 14]: 13
% Inhibition [2, 15]: 59%
Average Change [2, 15]: 23
% Inhibition [2, 16]: 46%
Average Change [2, 16]: 30.5
% Inhibition [2, 17]: 59%
Average Change [2, 17]: 23
